Biological target: T1, human muscarinic M3 receptor (Homo sapiens, UniProt P20309)
T1 construct: expressed in transfected cells
Assay: hM3 β-Lac potency assay (cell based β-lactamase, inhibition of carbamyl choline induced signal)
Settings: CHO cells expressing human M3 receptor with NFAT-β-lactamase reporter; 80 nM carbamyl choline, 4 h; IC50 converted to Ki by Cheng-Prusoff
Method: M3 potency was determined in CHO-K1 cells transfected with the NFAT-Betalactamase gene. CHO (Chinese Hamster Ovary) cells recombinantly expressing the human muscarinic M3 receptor were transfected with the NFAT_β-Lac_Zeo plasmid.
The cells were re-suspended at 2×10^5 cells/ml in growth medium (composition as described above). […] Muscarinic M3 receptor signalling was stimulated using 80 nM carbamyl choline (Aldrich N240-9) incubated with the cells for 4 h at 37° C./5% CO2 and monitored at the end of the incubation period using a Tecan SpectraFluor+ plate reader (λ-excitation 405 nm, emission 450 nm and 503 nm). […] Inhibition curves were plotted and IC50 values generated using a 4-parameter sigmoid fit and converted to Ki values using the Cheng-Prusoff correction and the KD value for carbamyl choline in the assay.

T1 sequence (P20309 whole entry): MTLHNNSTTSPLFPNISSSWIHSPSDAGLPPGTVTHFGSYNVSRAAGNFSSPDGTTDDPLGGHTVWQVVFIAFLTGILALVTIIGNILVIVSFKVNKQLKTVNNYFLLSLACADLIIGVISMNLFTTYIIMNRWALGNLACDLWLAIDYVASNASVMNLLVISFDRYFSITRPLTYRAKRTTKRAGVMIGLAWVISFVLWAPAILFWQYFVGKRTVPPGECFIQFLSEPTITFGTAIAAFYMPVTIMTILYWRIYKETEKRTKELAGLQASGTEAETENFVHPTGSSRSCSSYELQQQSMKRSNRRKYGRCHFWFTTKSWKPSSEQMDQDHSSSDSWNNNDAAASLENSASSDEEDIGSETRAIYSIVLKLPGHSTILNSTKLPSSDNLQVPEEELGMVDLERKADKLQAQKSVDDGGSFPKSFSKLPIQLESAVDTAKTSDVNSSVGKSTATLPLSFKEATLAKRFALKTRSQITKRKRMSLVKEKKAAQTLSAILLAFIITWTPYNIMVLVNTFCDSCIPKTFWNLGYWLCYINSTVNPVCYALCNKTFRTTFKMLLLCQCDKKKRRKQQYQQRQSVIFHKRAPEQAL

| Compound | Ki [nM] |
| --- | --- |
| CC(C)(CCC(C(N)=O)(c1ccccc1)c1ccccc1)N1CC(NCc2ccccc2O)C1 [Example 9, 5-[3-(2-Hydroxy-benzylamino)-azetidin-1-yl]-5-methyl-2,2-diphenyl-hexanoic acid amide] | 0.594 |
| CC(C)(CCC(C#N)(c1ccccc1)c1ccccc1)N1CC(NCc2cc(F)ccc2O)C1 [Example 7, 5-[3-(5-Fluoro-2-hydroxy-benzylamino)-azetidin-1-yl]-5-methyl-2,2-diphenyl-hexanenitrile] | 4.37 |
| CC(C)(CCC(C(N)=O)(c1ccccc1)c1ccccc1)N1CC(NCc2ccc(Cl)c(O)c2)C1 [Example 12, 5-[3-(4-Chloro-3-hydroxy-benzylamino)-azetidin-1-yl]-5-methyl-22-diphenyl-hexanoic acid amide] | 0.905 |
| CC(C)(CCC(C(N)=O)(c1ccccc1)c1ccccc1)N1CC(NCc2cc(F)ccc2O)C1 [Example 5, 5-[3-(5-Fluoro-2-hydroxy-benzylamino)-azetidin-1-yl]-5-methyl-2,2-diphenyl-hexanoic acid amide] | 2.53 |
| CC(C)(CCC(C(N)=O)(c1ccccc1)c1ccccc1)N1CC(NCc2cccc(O)c2Cl)C1 [Example 3, 5-[3-(2-Chloro-3-hydroxy-benzylamino)-azetidin-1-yl]-5-methyl-2,2-diphenyl-hexanoic acid amide] | 2.08 |
| CC(C)(CCC(C(N)=O)(c1ccccc1)c1ccccc1)N1CC(NCc2cc(Cl)ccc2O)C1 [Example 4, 5-[3-(5-Chloro-2-hydroxy-benzylamino)-azetidin-1-yl]-5-methyl-2,2-diphenyl-hexanoic acid amide] | 56.8 |
| CC(C)(CCC(C(N)=O)(c1ccccc1)c1ccccc1)N1CC(NCc2cccc(O)c2)C1 [Example 6, 5-[3-(3-Hydroxy-benzylamino)-azetidin-1-yl]-5-methyl-2,2-diphenyl-hexanoic acid amide] | 0.727 |
| CC(C)(CCC(C(N)=O)(c1ccccc1)c1ccccc1)N1CC(NCc2ccccc2)C1 [Example 2, 5-(3-Benzylamino-azetidin-1-yl)-5-methyl-2,2-diphenyl-hexanoic acid amide] | 0.556 |
| CC(C)(CCC(C#N)(c1ccccc1)c1ccccc1)N1CC(NCc2cc(Cl)ccc2O)C1 [Example 8, 5-[3-(5-Chloro-2-hydroxy-benzylamino)-azetidin-1-yl]-5-methyl-2,2-diphenyl-hexanenitrile] | > 315 |
| CC(C)(CCC(C(N)=O)(c1ccccc1)c1ccccc1)N1CC(NCc2ccc(F)c(O)c2)C1 [Example 10, 5-[3-(4-Fluoro-3-hydroxy-benzylamino)-azetidin-1-yl]-5-methyl-2,2-diphenyl-hexanoic acid amide] | 0.396 |
| CC(C)(CCC(C(N)=O)(c1ccccc1)c1ccccc1)N1CC(Sc2cccc(O)c2)C1 [Example 15, 5-[3-(3-Hydroxy-phenylsulfanyl)-azetidin-1-yl]-5-methyl-2,2-diphenyl-hexanoic acid amide] | 0.368 |
